For 62 molecules, AC50 results are on record in PubChem BioAssay AID463199 (Broad Institute, 2010).

The subject of this experiment is S. cerevisiae Burl-1 ts mutant growth, BacTiter-Glo, 38.5C 24 h. Briefly: growth induction of Burl-1 ts yeast mutant, dose response, counter-screen for SUMOylation pathway inhibitor project, whole organism, S. cerevisiae, luminescence (AID 463199). For orientation: A counterscreen serves to expose hits that act by an unwanted route or on another target.

The source made the active and inactive calls.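 How the source made its calls: active means AC50, the dose giving half-maximal effect, exceeds a fixed cutoff for a compound that rescues yeast growth under heat; inactive means the rest, inconclusive results apart.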

Broadly, the AC50 is the midpoint of the concentration-response curve, whichever way the signal moves. Regarding `O=C(O)COc1ccc(Br)cc1/C=N\Nc1ccccn1`, the AC50 is > 42 µM (inactive). Under `O=C(O)c1cc(S(=O)(=O)Nc2ccc(OCc3ccccc3)cc2)ccc1Br` stands > 42 µM (inactive); under `COC(=O)Oc1ccc(/C=N/NS(=O)(=O)c2ccccc2)cc1OC`, > 42 µM (inactive). Under `Cc1cccc(OCc2nnc(SCC(=O)O)n2-c2ccccc2)c1` stands > 42 µM (inactive). Under `CCN1C(=NCC(C)C)N[C@@H](c2cccc(C(F)(F)F)c2)C(C(=O)OC)=C1C` stands > 42 µM (inactive); under `CC1=C/C(=N\OS(=O)(=O)c2ccccc2)C(C(C)C)=CC1=O`, > 42 µM (inactive); under `O=c1c2ccccc2nc(SCc2nnc(-c3ccccc3)o2)n1-c1ccc(F)cc1F`, > 42 µM (inactive). In the case of `N=c1n(CCCOc2ccc(Br)cc2)c2ccccc2n1CC(N)=O`, the AC50 is > 42 µM (inactive). Under `CCN(CC)S(=O)(=O)c1ccc(N2CCCC2)c(C(=O)OCC(=O)Nc2cc(C)on2)c1` stands > 42 µM (inactive); under `COCC(=O)n1nc(-c2ccccc2)nc1NCc1ccc(N(C)C)cc1`, > 42 µM (inactive); under `Cc1ccc(-n2c(-c3ccco3)nc3c(cnn3-c3ccc(C)cc3)c2=O)cc1`, > 42 µM (inactive).

As to `O=C(Nc1ccc2c(c1)oc1ccccc12)C1CC1`, the AC50 was > 42 µM (inactive). For `Cc1ccc2c(c1)C(=O)N1[C@H]3c4ccccc4OC[C@@H]3[C@H](c3ccccc3)[C@]1(C)C(=O)N2`, the AC50 is > 42 µM (inactive). Consider `COC(=O)c1[nH]c2cc(C)ccc2c1NC(=O)CN1CCN(c2ccccc2OC)CC1`, for which the AC50 was > 21 µM (inactive). Under `CCOC(=O)C1CCN(C(=O)c2ccc3c(c2)NC(=O)/C(=C/c2ccccc2)S3)CC1` stands > 42 µM (inactive); under `CCOc1ccccc1Nc1nnc(SCc2nnc(-c3cc(OC)c(OC)c(OC)c3)o2)s1`, > 42 µM (inactive); under `Cc1ccc2c(c1)N(CC(=O)NCCCN1CCN(C)CC1)C(=O)CO2`, > 42 µM (inactive).

For the molecule `Cc1c(C(=O)N2CCOCC2)c(S(=O)(=O)Nc2cccc(Br)c2)c(C)n1C`, the AC50 is > 42 µM (inactive).

On to `Cc1cc(Cl)c2oc(C(=O)NC3CCC(O)CC3)c(C)c2c1` (configuration not stated), for which the AC50 was > 42 µM (inactive). Under `O=C(O)Cc1sc(Nc2ccccc2)nc1-c1cccs1` stands > 42 µM (inactive). Under `O=C(CCCc1nc(-c2ccc(Cl)cc2)no1)NC1CCCCC1` stands > 42 µM (inactive). Take `CCOC(=O)C1CCN(CC(O)COc2ccc(C(C)(C)C)cc2)CC1` (configuration not stated): the AC50 was > 42 µM (inactive). Under `COCC(=O)n1nc(-c2ccc(Cl)cc2)nc1NCc1ccc(F)cc1` stands > 42 µM (inactive). The result for `O=C(c1ccc2c(=O)n(Cc3ccccc3Cl)c(=S)[nH]c2c1)N1CCOCC1` reads > 42 µM (inactive); that for `COc1ccc(-c2nnc(SCC(C)C)o2)cc1`, > 42 µM (inactive); that for `O=C(COC(=O)Cc1ccsc1)NC1CCCCCC1`, > 42 µM (inactive).

Turning to `CCN(CC)c1nc(Nc2ccc(Cl)cc2)nc(OCC#N)n1`, the AC50 was > 42 µM (inactive).

Regarding `CCC12CN3CCN(CC(C3)/C1=N/NC(=O)c1ccncc1)C2`, the AC50 is > 42 µM (inactive). Under `CCn1nnc(-c2ccccc2NC(=O)c2cnccn2)n1` stands > 42 µM (inactive); under `CSc1ncccc1C(=O)NC1CCCc2c1cnn2-c1ccc(C)c(C)c1` (configuration not stated), > 42 µM (inactive).

On to `CCCCCC(=O)NNC1=NCC(Cc2cccc(Cl)c2)S1` (configuration not stated), for which the AC50 is > 42 µM (inactive). Under `Cc1ccc(S(=O)(=O)N(C)CC(=O)O/N=C(\N)c2ccccn2)cc1` stands 40.6 µM; under `CCCCn1c(N)c(N(CC(C)C)C(=O)c2cc(-c3ccc(F)cc3)nc3ccccc23)c(=O)[nH]c1=O`, > 42 µM (inactive); under `N#C/C(=C\c1ccc(O)c(O)c1)C(=O)Nc1ccccc1`, > 42 µM (inactive). The result for `Oc1c(Br)cc(Cl)cc1C=Nc1ccccc1Br` reads > 42 µM (inactive).

Regarding `Cc1cccn2c(=O)c3cc(C(=O)NCc4cccnc4)c(=N)n(C(C)C)c3nc12`, the AC50 is > 42 µM (inactive). Under `CC(=O)Nc1cccc(NC(=S)Nc2ccc(F)cc2F)c1` stands > 42 µM (inactive); under `S=C(Nc1ccc(Cl)cc1)N1CCN(Cc2ccccc2)CC1`, > 42 µM (inactive). The result for `Cc1csc(=O)n1CC(=O)OCC(=O)Nc1cc([N+](=O)[O-])ccc1Cl` reads > 42 µM (inactive). The result for `C=CCSc1nnc2c(n1)[nH]c1c(C)cccc12` reads > 42 µM (inactive); that for `CCOC(=O)C1ON2CCCCC2C1(O)C(F)(F)F` (configuration not stated), > 42 µM (inactive).

On to `CN(CC(=O)N1CCc2[nH]c3ccc(F)cc3c2C1)CC1OCCO1`, for which the AC50 was > 42 µM (inactive). Under `Cc1cc([N+](=O)[O-])ccc1NC(=O)CSc1nccc(=O)[nH]1` stands > 42 µM (inactive).

As to `CC1(C)CC(=O)C=C(OC(=O)c2ccc(Cl)cc2)C1`, the AC50 was > 42 µM (inactive).

As to `COc1ccc(OC)c(Cc2nnc(CCC(=O)NCc3ccsc3)o2)c1`, the AC50 was > 42 µM (inactive). The result for `CCOc1ccc(/C=N/NC(=O)c2ccc(CSc3nc4ccccc4[nH]3)cc2)cc1` reads > 42 µM (inactive); that for `S=c1[nH]nc(-c2ccccn2)n1/N=C/c1ccccc1`, > 42 µM (inactive).

Regarding `CC(=O)c1c(Nc2cccc(F)c2)oc(C)cc1=O`, the AC50 is > 42 µM (inactive). Under `CCOC(=O)N1CCC(Nc2nc3ccccc3n3nnnc23)CC1` stands > 42 µM (inactive); under `Cc1ccc(C(=O)NC(NC(=O)c2ccc(C)cc2)C(Cl)Cl)cc1`, > 42 µM (inactive); under `CN(C)c1ccc(/C=N\Nc2ccccn2)cc1`, > 42 µM (inactive). Under `Cc1cc(C)cc(C(=O)NC(CC(N)=O)c2ccc(N3CCC(N4CCCCC4)CC3)c([N+](=O)[O-])c2)c1` (configuration not stated) stands > 42 µM (inactive); under `CC(NC(=O)C1CCCCC1)C(=O)NC1=NCCS1` (configuration not stated), > 42 µM (inactive); under `COc1ccc(S(=O)(=O)N2CCCC2CNC(=O)C(=O)NCc2ccccn2)cc1` (configuration not stated), > 42 µM (inactive). The result for `CCCc1cc(=O)oc2c3c(c4c(c12)OC(C)(C)C=C4)OC(C)C(C)C3O` (configuration not stated) reads > 42 µM (inactive); that for `O=S(=O)(c1ccc(S(=O)(=O)N2CCCC2)cc1)N1CCCCC1`, > 42 µM (inactive). Regarding `CCOC(=O)c1ccc(CNC(=O)Cn2nnc(-c3ccc(C)cc3)n2)o1`, the AC50 was > 42 µM (inactive).

Turning to `Cn1c(O)c(C(c2ccccn2)c2c(O)n(C)c(=S)n(C)c2=O)c(=O)n(C)c1=S`, the AC50 is > 42 µM (inactive). The result for `O=C(c1ccc([N+](=O)[O-])o1)N1CCN(c2nc3c(Cl)cccc3s2)CC1` reads > 42 µM (inactive); that for `CCN(CC)c1ccc(N=Cc2c(O)n(Cc3ccccc3)c(=O)[nH]c2=O)cc1`, > 42 µM (inactive); that for `O=C(NC1CCc2ccccc21)c1cc(COc2ccc(F)cc2F)on1` (configuration not stated), > 42 µM (inactive). Under `Cc1ccc2nc(SCC(=O)Nc3cccc(S(N)(=O)=O)c3)[nH]c2c1` stands > 42 µM (inactive).
